Legend:
[1] = Study 1: pulmonary delivery by nebulizer and facemask, plasma propofol and sedation; type: in vivo; conditions: one male beagle dog, inhalation of 3 mL of 250 mg/mL aqueous solution over approximately 10 min
Procedure: (§1) A preliminary study was conducted to assess the conversion of O-phosphonooxymethyl propofol disodium salt to the pharmacologically active drug propofol following pulmonary delivery. A male beagle dog was fasted overnight prior to the study. O-phosphonooxymethyl propofol disodium salt was dissolved in water (250 mg/mL). 3-mL of the O-phosphonooxymethyl propofol disodium salt solution was delivered over approximately 10 min to the dog via inhalation through a nebulizer connected to a facemask that was placed over the dog's muzzle. The actual dose of O-phosphonooxymethyl propofol disodium salt delivered to the dog is less than the dose nebulized due to vapor loss during exhalation. Two mL blood samples were collected via a catheter placed in the cephalic vein prior to the study. Samples were collected for 1.5 hours post-dose at 5, 10, 20, 30, 40, 50, 60 and 90 minutes after initiation of delivery by inhalation. The concentration of propofol in the blood samples was determined using HPLC with fluorescence detection.
These finding are significant, as it is known that humans are more susceptible to the affects of propofol than dogs. Therefore, the onset of action would be very rapid in humans.

[2] = Study 2: pulmonary delivery by nebulizer for a defined time (10 min), plasma propofol and sedation; type: in vivo; conditions: three male beagle dogs, 250 mg/mL aqueous solution nebulized for 10 min
Procedure: as §1, with “A second” for “A preliminary”, “delivery. The study design was essentially the same as Study 1 above except that the O-phosphonooxymethyl propofol disodium salt solution was nebulized for a defined period of time (10 min) instead of to complete nebulization of the solution. Three” for “delivery. A”, “beagle dogs” for “beagle dog”, “mg/mL). The” for “mg/mL). 3-mL of the”, “delivered for” for “delivered over approximately”
These finding are significant, as it is known that humans are more susceptible to the effects of propofol than dogs. […]

[3] = sample at 5 minutes post dose initiation, HPLC with fluorescence detection

**Q.** With `CC(C)c1cccc(C(C)C)c1OCOP(=O)([O-])[O-].[Na+].[Na+]` [O-phosphonooxymethyl propofol disodium salt] as the compound, how does the “signs of sedation, time after the completion of the inhaled dose” value [1] read?
**A.** approximately 15 minutes

**Q.** What about the “concentration of propofol in the plasma, first blood sample” value [1, 3] of the same compound?
**A.** significant concentration of propofol in the plasma

**Q.** And the “signs of sedation, time after the completion of the inhaled dose” value [2]?
**A.** 10 to 15 min

**Q.** And the “concentration of propofol in the plasma, first blood sample” value [2, 3]?
**A.** significant concentration of propofol in the plasma

From patent US20090098209A1, “PHARMACEUTICAL CO[…]-SOLUBLE DERIVATIVES OF PROPOFOL AND METHODS OF ADMINISTERING SAME VIA PULMONARY ADMINISTRATION” (UNIVERSITY OF KANSAS, priority 2007, published 2009)
